Where a name gives a salt, the structure may show the parent alone. Read-outs that look alike come from different tables or passages of the source.
Tests used:
[1] = system: balb/c mouse hepatocytes; assay: Hepatocyte stability, balb/c mouse; assay type: in vitro ADME; settings: 2 μM, 0.5 million cells/ml
Description: (§1) In this study, human, cynomolgus monkey, beagle dog, wistar hannover rat, and balb/c mouse hepatocyle stability was determined.

[2] = system: human hepatocytes; assay: Hepatocyte stability, human; assay type: in vitro ADME; settings: 2 μM, 0.5 million cells/ml, 120 min
Description: as §1

[3] = biological target: T1, CYP1A2 (Homo sapiens, UniProt P05177); assay: CYP450 panel inhibition in human liver microsomes, 1A2 (phenacetin); settings: human, microsomes, pH 7.4
T1 sequence (P05177 1-516): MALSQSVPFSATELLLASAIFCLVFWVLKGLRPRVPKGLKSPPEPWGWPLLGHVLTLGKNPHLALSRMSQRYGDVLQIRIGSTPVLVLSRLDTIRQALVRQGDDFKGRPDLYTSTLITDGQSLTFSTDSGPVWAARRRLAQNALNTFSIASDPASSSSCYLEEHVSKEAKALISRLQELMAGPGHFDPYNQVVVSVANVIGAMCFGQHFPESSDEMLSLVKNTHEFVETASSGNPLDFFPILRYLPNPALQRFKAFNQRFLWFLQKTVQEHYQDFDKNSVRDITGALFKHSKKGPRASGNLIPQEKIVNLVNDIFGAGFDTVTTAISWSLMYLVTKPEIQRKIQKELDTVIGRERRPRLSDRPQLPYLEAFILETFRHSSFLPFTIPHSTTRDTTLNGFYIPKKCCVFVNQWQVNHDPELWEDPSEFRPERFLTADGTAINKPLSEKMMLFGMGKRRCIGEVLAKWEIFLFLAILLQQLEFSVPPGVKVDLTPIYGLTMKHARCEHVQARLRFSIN

[4] = biological target: CYP3A4 (Homo sapiens, UniProt P08684); assay: CYP450 panel inhibition in human liver microsomes, 3A4 (midazolam / testosterone); settings: 10 μM, substrate testosterone
[5] = Kinetic solubility (PBS pH 7.4; 4 hr); assay type: physicochemical; settings: PBS buffer, pH 7.4, aqueous buffer, kinetic from dmso stock; free base (Table 19); read-out: Kinetic Solubility
Method in brief: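 Compound shaken in PBS pH 7.4 for 4 h at room temperature, then centrifuged. Supernatant, diluted with DMSO, quantified by LC-UV peak area against DMSO calibration curves.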

[6] = Caco-2 bidirectional permeability (absorption & efflux); settings: human
[7] = Hepatocyte stability, cynomolgus monkey; assay type: in vitro ADME; settings: 0.5 million cells/ml; for CLint scaled at 2 μM: cynomolgus monkey, hepatocytes
Description: as §1

[8] = Mouse pharmacokinetics (oral cassette dosing), plasma; assay type: in vivo; settings: female, mouse, BALB/c immunocompetent mice, 5 mg/kg p.o.
[9] = Plasma stability, human plasma (K2EDTA); assay type: in vitro ADME; settings: human plasma, 2 μM, anti-coagulant K2-EDTA

Sequence of CYP3A4 (P08684 whole entry): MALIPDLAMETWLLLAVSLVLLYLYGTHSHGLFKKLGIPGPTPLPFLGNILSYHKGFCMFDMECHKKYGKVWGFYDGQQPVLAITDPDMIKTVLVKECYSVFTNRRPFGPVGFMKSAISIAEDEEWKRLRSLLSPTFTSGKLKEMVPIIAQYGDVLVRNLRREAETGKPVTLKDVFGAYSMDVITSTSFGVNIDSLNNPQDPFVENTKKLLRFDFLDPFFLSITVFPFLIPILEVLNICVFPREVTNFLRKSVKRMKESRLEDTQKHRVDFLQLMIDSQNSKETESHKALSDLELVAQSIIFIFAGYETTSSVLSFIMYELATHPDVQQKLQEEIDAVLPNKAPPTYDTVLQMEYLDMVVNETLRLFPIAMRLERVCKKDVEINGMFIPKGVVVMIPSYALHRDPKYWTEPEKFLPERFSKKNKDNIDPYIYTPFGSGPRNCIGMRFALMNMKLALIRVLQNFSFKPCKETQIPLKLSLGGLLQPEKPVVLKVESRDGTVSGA

## CNS(=O)(=O)Nc1cccc(Cc2c(CN3CCNCC3)c3cc(Cl)c(OC(=O)N(C)C)cc3oc2=O)c1Cl [Compound 256, 6-chloro-3-(2-chloro-3-((N-methylsulfamoyl)amino)benzyl)-2-oxo-4-(piperazin-1-ylmethyl)-2H-chromen-7-yl dimethylcarbamate hydrochloride]
[1]
  % Remaining At T120: 65.6%
[2]
  % Remaining At T120: 91.4%
[3]
  inhibition at 30 min, 10 µM: 6.2%
[4]
  CYP-3A4 (Testosterone) mean percentage CYP inhibition: 69.2%
[5]
  solubility kinetic at 4 h: > 80 µM
[6]
  Papp A→B at 2 h, 10 μM: 3.59 ×10⁻⁶ cm/s
  Papp B→A at 2 h, 10 μM: 13.4 ×10⁻⁶ cm/s
  efflux ratio at 2 h, 10 μM: 3.73
[7]; cynomolgus monkey hepatocytes
  half-life at 2 μM: 135 min
[7]; read-out: CLint (L/hr/kg) (converted)
  CLint scaled at 2 μM: 2.5 L/h/kg
[7]; read-out: CLint (mL/min/kg)
  CLint scaled at 2 μM: 2.5 L/h/kg
[8]
  AUC(0-inf): 28.3 ng·h/mL
[8]; read-out: AUC0-t
  AUC(0-t): 19.5 ng·h/mL
[8]; read-out: Cmax
  Cmax: 8.3 ng/mL
[8]; read-out: Tmax
  Tmax: 30 min
[9]; 120 min
  % Remaining at T120: 84.8%
[9]; pH 7.4, 10 to 120 min, read-out: T1/2
  half-life at 2 μM: 841 min

From patent publication US20250179057A1, “MEK IMMUNE ONCOLOGY INHIBITORS AND THERAPEUTIC USES THEREOF” (Immuneering Corporation, priority 2022, published 2025)
